Source: ChEMBL document CHEMBL1201862, “PubChem BioAssay data set” (2004)
Active and inactive are the calls of the source. Cut-off read from the data, not from the text of the source, for most assays here: actives have a measured EC50 and inactives only a lower limit.

Assays:
[1] = molecular target: T1, Heat shock factor protein 1 (Mus musculus, UniProt P38532); assay: HSF1 potentiators in luciferase reporter cells, confirmation, cell-based, NIH3T3, luminescence, dose retest (AID 435004); format: functional;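 note: stress induced by proteasome inhibitor MG132 added 30 min after compound; luciferase reporter driven by HSF1 response element in NIH3T3 cells; actives raise luminescence as potentiators of the MG132 stress response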
T1 sequence (P38532 whole entry): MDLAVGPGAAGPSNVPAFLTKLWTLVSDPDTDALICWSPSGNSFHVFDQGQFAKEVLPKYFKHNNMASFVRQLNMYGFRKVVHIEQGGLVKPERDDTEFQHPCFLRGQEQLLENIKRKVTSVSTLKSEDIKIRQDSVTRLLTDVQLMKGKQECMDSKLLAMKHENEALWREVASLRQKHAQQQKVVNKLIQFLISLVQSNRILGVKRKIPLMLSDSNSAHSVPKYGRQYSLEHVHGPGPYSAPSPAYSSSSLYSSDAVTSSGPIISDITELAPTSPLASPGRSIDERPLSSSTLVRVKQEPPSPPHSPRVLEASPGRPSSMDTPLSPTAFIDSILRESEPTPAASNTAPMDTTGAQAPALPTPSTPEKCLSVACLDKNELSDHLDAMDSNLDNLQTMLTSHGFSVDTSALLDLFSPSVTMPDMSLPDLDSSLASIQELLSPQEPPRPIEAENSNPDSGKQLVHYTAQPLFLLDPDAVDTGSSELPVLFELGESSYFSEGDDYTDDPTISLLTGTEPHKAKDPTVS

[2] = molecular target: Luciferin 4-monooxygenase (Photinus pyralis, UniProt P08659); assay: firefly luciferase enzyme inhibitors, dose response, biochemical, luminescence (AID 1891)
[3] = Luminescence Cell-Based Dose Confirmation HTS to Identify Inhibitors of Platelet Dense Granule Release. [Related pubchem assays: 1663 (Primary HTS), 1678 (Summary of Project)]; format: functional
[4] = inhibitors of intracellular T. cruzi replication, confirmation, NIH3T3 host cells, beta-gal luminescence (AID 2044); format: functional, cell-based;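 note: intracellular parasites grown in NIH/3T3 mouse fibroblasts as host cells; luminescent beta-galactosidase reporter signal from transgenic T. cruzi replicating inside host cells; inhibitors lower the luminescence signal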
[5] = cytotoxicity toward NIH3T3 fibroblasts, dose response, counter-screen, cell-based, ATP luminescence, mouse fibroblasts (AID 2010); format: functional;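 note: cells exposed to compound for about 90 hours before reading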
Paired box protein Pax-8 = Paired box protein Pax-8 (Homo sapiens, UniProt Q06710); assay: inhibitors of PAX8-driven TPO luciferase reporter, dose response, RMG-I cells, cherry-pick (AID 687027); format: functional, cell-based;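 note: luciferase reporter driven by Pax8 target thyroperoxidase promoter measured by SteadyGlo luminescence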
Protein RecA = molecular target: T2, Protein RecA (Mycobacterium tuberculosis, UniProt P9WHJ3); assay: Fluorescence Cell-Free Homogeneous Dose Retest to Identify Inhibitors of RecA-Intein Splicing Activity. [Related pubchem assays (depositor defined):AID2097, AID2223, AID489010, AID492950]; format: functional
T2 sequence (P9WHJ3 whole entry): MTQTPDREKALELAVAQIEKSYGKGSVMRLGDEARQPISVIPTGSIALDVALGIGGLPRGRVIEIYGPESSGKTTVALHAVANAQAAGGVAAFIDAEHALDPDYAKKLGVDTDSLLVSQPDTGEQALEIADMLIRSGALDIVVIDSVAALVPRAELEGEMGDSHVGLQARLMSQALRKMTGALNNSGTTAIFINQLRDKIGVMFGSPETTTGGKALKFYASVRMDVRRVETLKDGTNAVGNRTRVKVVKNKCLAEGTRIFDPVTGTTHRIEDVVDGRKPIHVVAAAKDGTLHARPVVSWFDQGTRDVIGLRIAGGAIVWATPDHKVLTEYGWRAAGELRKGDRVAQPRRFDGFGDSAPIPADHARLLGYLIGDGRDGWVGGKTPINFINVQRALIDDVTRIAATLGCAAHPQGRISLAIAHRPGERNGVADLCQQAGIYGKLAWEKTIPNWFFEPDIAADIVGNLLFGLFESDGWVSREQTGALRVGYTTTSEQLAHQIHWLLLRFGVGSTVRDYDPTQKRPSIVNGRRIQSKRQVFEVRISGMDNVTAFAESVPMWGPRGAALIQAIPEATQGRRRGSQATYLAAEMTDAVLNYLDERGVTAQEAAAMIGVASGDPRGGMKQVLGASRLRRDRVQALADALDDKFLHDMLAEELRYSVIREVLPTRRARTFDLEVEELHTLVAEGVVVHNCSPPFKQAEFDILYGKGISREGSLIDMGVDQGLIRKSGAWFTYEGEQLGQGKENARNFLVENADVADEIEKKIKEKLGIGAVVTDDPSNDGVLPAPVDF

[6] = molecular target: T3, Replicative DNA helicase DnaB (Mycobacterium tuberculosis, UniProt P9WMR3); assay: DnaB intein splicing inhibitors, dose response, biochemical, cell-free fluorescence (AID 449749); format: functional
T3 sequence (P9WMR3 whole entry): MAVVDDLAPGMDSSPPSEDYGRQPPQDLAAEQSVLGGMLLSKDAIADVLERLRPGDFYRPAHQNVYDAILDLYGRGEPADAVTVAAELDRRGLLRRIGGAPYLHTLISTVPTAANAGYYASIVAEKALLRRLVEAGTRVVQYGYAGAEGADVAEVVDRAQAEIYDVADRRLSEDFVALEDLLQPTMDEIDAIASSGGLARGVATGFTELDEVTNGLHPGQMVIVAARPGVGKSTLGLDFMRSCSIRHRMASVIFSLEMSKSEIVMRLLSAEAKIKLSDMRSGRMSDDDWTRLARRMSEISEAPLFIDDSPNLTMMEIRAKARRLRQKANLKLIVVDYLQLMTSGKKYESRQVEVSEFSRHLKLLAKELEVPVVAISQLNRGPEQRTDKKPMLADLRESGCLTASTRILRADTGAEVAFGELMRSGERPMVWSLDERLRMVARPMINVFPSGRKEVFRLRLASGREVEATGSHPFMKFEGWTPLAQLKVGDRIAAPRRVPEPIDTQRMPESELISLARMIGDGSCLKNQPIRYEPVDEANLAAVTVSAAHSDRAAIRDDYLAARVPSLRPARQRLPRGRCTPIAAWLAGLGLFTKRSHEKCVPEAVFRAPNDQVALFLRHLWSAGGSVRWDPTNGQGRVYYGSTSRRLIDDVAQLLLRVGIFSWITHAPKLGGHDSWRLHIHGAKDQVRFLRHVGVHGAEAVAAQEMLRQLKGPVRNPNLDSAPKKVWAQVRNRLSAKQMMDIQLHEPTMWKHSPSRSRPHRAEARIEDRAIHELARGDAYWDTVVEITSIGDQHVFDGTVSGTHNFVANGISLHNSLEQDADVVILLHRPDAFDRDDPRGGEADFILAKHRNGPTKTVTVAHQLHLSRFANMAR

[7] = Luminescence Cell-Based Dose Response HTS to Identify Inhibitors of 5'UTR Stem-Loop Driven Prion Protein mRNA Translation in H4 Neuroglioblastoma Cells. [Related pubchem assays: 1827 (Project Summary), 1813 (Primary HTS)]; format: functional
[8] = inhibitors of firefly luciferase expression or activity, dose response, H4 neuroglioma cells, luminescence (AID 1990); format: functional, cell-based
[9] = inhibitors of SNCA 5'UTR-driven reporter translation, confirmation, H4 neuroglioma cells, luminescence (AID 1988); format: functional, cell-based
[10] = test system: Streptococcus sp. 'group A'; assay: growth inhibition of control SK(-) GAS strain, dose response, counter-screen for streptokinase expression inhibitor project, luminescence, kanamycin, BacTiterGlo, confirmation (AID 1900); format: functional, organism-based
Streptococcus = assay: Group A Streptococcus viability loss, dose response, counter-screen for streptokinase expression inhibitor project, luminescence, BacTiterGlo (AID 1915); format: functional, organism-based;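 note: potency for reduction of bacterial viability or growth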
[11] = microbe, parasite or virus in culture; format: functional; conditions: Mycobacterium tuberculosis
Cytochrome P450 1A2 = molecular target: T4, Cytochrome P450 1A2 (Homo sapiens, UniProt P05177);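 note: PubChem cytochrome P450 panel assay, CYP1A2 panel member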
T4 sequence (P05177 whole entry): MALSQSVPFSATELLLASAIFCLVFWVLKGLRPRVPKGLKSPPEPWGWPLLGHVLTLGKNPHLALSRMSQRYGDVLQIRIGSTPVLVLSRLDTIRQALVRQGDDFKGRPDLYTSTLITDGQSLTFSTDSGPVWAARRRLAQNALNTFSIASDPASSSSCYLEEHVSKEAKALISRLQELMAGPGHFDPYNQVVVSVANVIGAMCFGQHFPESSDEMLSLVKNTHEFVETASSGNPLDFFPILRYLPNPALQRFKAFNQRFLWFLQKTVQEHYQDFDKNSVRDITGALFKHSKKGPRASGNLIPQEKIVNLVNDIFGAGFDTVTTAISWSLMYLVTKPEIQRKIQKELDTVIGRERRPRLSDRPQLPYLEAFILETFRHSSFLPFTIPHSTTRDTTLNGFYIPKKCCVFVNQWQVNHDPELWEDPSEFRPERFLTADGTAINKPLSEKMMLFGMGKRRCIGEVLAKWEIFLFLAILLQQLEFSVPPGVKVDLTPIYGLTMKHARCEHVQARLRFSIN

[12] = Luminescence Cell-Based Dose Response HTS to Identify Activators of Luciferase Translation or Activity in H4 […] Cells. [Related pubchem assays: 1829 (Project Summary), 1814 (Primary HTS)]; format: functional
H4 = assay: Luminescence Cell-Based Dose Response HTS to Identify Activators of 5'UTR Stem-Loop Driven Prion Protein mRNA Translation in H4 Neuroglioblastoma Cells. [Related pubchem assays: 1829 (Project Summary), 1814 (Primary HTS)]; format: functional; conditions: Homo sapiens
[13] = Luminescence Cell-Based Dose Confirmation HTS to Identify Activators of 5'UTR Stem-Loop Driven Alpha-Synuclein mRNA Translation in H4 Neuroglioblastoma Cells. [Related pubchem assays: 1829 (Project Summary), 1814 (Primary HTS)]; format: functional

Sequence of Luciferin 4-monooxygenase (P08659 whole entry): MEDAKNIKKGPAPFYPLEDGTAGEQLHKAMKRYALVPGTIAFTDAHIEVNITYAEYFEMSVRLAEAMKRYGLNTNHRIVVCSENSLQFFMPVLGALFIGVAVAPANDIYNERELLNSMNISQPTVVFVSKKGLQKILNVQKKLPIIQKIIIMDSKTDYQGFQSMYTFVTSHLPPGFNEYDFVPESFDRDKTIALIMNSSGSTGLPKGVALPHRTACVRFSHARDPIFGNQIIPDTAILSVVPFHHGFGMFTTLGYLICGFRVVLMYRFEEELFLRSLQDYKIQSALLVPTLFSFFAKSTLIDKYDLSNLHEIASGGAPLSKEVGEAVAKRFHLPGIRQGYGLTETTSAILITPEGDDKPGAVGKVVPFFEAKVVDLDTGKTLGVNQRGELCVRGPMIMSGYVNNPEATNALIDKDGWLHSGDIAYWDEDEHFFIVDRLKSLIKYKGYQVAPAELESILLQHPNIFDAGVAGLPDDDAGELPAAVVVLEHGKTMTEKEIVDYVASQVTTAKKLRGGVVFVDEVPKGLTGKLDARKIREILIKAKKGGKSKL
Sequence of Paired box protein Pax-8 (Q06710 whole entry): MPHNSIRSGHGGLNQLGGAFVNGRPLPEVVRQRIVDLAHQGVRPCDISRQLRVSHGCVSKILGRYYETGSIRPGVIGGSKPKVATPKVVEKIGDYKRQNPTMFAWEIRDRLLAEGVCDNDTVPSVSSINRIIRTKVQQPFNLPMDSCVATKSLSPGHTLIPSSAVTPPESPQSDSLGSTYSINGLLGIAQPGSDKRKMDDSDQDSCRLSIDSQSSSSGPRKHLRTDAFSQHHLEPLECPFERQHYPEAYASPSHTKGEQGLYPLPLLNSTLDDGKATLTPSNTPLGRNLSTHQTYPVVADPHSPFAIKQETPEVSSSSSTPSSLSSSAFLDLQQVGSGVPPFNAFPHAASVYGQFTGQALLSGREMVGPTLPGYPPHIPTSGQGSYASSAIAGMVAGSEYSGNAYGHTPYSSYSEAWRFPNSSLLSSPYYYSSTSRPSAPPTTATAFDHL

Row | Structure (SMILES) | EC50 [1] | EC50 [2] | EC50 [3] | also measured
1 | Cc1ccc2nc(-c3ccc4c(c3)OCCO4)cc(C(=O)O)c2c1 | > 260 µM (inactive) |  |  | 
2 | CCOc1ccc2nc(NC(=O)c3ccc(C)o3)sc2c1 |  | 0.562 µM (active) | 5.87 µM (active) | 
3 | O=S(=O)(CCc1ccccc1)/N=C/c1cccs1 |  | > 112 µM (not active) | > 112 µM (not active) | 
4 | Cc1cccc(C2c3[nH]c4ccccc4c3CCN2Cc2cnn(-c3ccc(F)cc3)c2)n1 (stereo unspecified) | > 260 µM (inactive) |  |  | 
5 | CN(C)CCCN(C(=O)CCOc1ccccc1)c1nc2c(F)cccc2s1 |  |  |  | EC50 [4]: 0.152 µM (active); EC50 [5]: 7.17 µM (active); AC50 (Paired box protein Pax-8): 7.17 µM (active)
6 | O=C(NC1CCCCC1)C1CCCN1S(=O)(=O)c1cccc2nsnc12 (stereo unspecified) | > 260 µM (inactive) |  |  | 
7 | COC(=O)c1cc(NC2c3ccccc3C(=O)N2c2cccnc2)cc(C(=O)OC)c1 (stereo unspecified) |  | > 112 µM (not active) | > 112 µM (not active) | 
8 | CCN(CC)S(=O)(=O)c1ccc(OC)c(NC(=O)c2cc3c(=O)n4ccccc4nc3s2)c1 | > 260 µM (inactive) |  |  | 
9 | Cc1nccn1-c1c([N+](=O)[O-])c(=O)n(C)c2ccccc12 |  |  |  | EC50 (Protein RecA): 12.2 µM (active); AC50 [6]: 29 µM (active)
10 | Cc1ccc(O)c(C(=O)c2cnc3c(c2)CN(CCC(C)C)C(=O)N3)c1 | > 260 µM (inactive) |  |  | 
11 | Cc1n[nH]c(O)c1[C@@H](c1ccccc1[N+](=O)[O-])C(C#N)C#N |  |  |  | EC50 (Protein RecA): 2.63 µM (active)
12 | CCCCc1ccc(-c2ccc(Br)cc2)nc1 | > 260 µM (inactive) |  |  | 
13 | CCC(=O)N1c2ccc(S(=O)(=O)CCC(=O)N3CCN(c4ccccc4F)CC3)cc2CC1C (stereo unspecified) |  | > 112 µM (not active) | > 112 µM (not active) | 
14 | CC(Nc1cc(N2CCNCC2)ccc1[N+](=O)[O-])c1ccccc1 (stereo unspecified) | > 260 µM (inactive) |  |  | EC50 [7]: > 120 µM (not active); EC50 [8]: > 120 µM (not active); EC50 [9]: 33.7 µM (active)
15 | Cc1sc2ncnc(N3CCC(C(=O)NCC(=O)Nc4ccc(F)c(F)c4)CC3)c2c1C |  |  |  | EC50 [10]: 4.44 µM (active); EC50 (Streptococcus): 8.01 µM (active); CC50 [11]: 30.4 µM (active)
16 | Cc1cc(C)n2nc(SCc3cc(=O)oc4cc(C)c(C)cc34)nc2n1 |  | > 112 µM (not active) | > 112 µM (not active) | 
17 | COc1ccc(CN2CCCC(C(=O)c3ccc(SC)cc3)C2)cc1Cn1cccn1 (stereo unspecified) |  |  |  | CC50 [11]: > 40 µM (active)
18 | CCOc1ccc(N2C=Nc3ccc(OCC)cc3C2)cc1 |  |  |  | CC50 [11]: > 40 µM (active)
19 | CN(Cc1ccccc1)C(=O)CCC1CCN(C(=O)CC2=CCCCC2)CC1 | > 260 µM (inactive) |  |  | 
20 | Cc1onc(-c2ccccc2)c1C(=O)N=C(N)c1ccc(Cl)cc1 |  | > 112 µM (not active) | 28.4 µM (active) | 
21 | CC(=O)Nc1cc(OC(=O)c2ccco2)cc(OC(=O)c2ccco2)c1 |  |  |  | EC50 (Protein RecA): 1.03 µM (active); AC50 [6]: 1.77 µM (active)
22 | Cc1c(C(=O)N(Cc2ccncc2)CC2CCCO2)oc2c(F)cccc12 (stereo unspecified) | > 260 µM (inactive) |  |  | 
23 | COC(=O)C1CSC(C(=O)OC)N1C(=O)Nc1ccccc1 (stereo unspecified) |  | > 112 µM (not active) | > 112 µM (not active) | AC50 (Cytochrome P450 1A2): 25.1 µM (inconclusive)
24 | O=C(NC1CCCCC1)C(c1cccs1)N(C(=O)Cc1c[nH]c2ccccc12)c1ccc(F)cc1 (stereo unspecified) |  |  |  | EC50 [4]: 0.871 µM (active); EC50 [5]: 9.47 µM (active); AC50 (Paired box protein Pax-8): 11.7 µM (active)
25 | Cc1ccc(C(=O)NCCn2cc(SCC(=O)Nc3nnc(C)s3)c3ccccc32)cc1 |  | > 112 µM (not active) | > 112 µM (not active) | EC50 [12]: 23.2 µM (active); EC50 (H4): > 120 µM (not active); EC50 [13]: 7.83 µM (active)
26 | CN1C(C(=O)NCc2ccc(OC(F)(F)F)cc2)CC2Cn3c(nc4cc(Cl)c(Cl)cc43)C21 (stereo unspecified) |  |  |  | CC50 [11]: 34.1 µM (active)
27 | CC(C)(CO)NCC(O)COc1ccc2c(c1)CCC2 (stereo unspecified) |  | > 112 µM (not active) | > 112 µM (not active) | 
